Measured values: patent US20240366560A1, “SMALL MOLECULE TREATMENT OF FATTY LIVER DISEASE AND HCC” (ScandiEdge Therapeutics AB, priority 2021, published 2024)

Columns and labels:
PKLR [1] = test: PKLR protein level by western blot in steatosis-induced HepG2, 7-day drug treatment; format: cell-based; details: steatosis-induced HepG2, 7 days of drug treatment, P<0.05, FIG. 2B
Protocol: (§1) WT HepG2 was included in this study and cultured by Roswell Park Memorial Institute (RPMI, R2405, Sigma Aldrich) 1640 Medium with 10% fetal bovine serum (FBS) and 1% penicillin-streptomycin (PS). To induce a steatosis model into WT HepG2 cells, high glucose Dulbecco's Modified Eagle Media (DMEM, D0822/D5671, Sigma-Aldrich) containing 10% FBS and 1% PS was used as medium for one week, together with 10 μg/mL insulin and 10 μM T0901317. All of cells were incubated in the incubator with 5% CO2 and 37° C. (Thermo SCIENTIFIC). Fresh medium was provided every two days.
(§2) As for drug-screening, different numbers of HepG2 cells were seeded for distinct experiments. More in details, 40,000 cells and 500,000 cells were used for 2-day-drug treatment in 96-well-plate and 6-well plate, respectively, while 80,000 cells and 300,000 cells were used for one-week drug treatment in 96-well plate and 6-well plate, respectively. Detailed drug dosages could be found in FIG. 5. Fresh medium was provided every two days.
(§3) Protein content levels were detected by western blot. After the respective treatment of drugs, the cell pellets were lysed in cell lytic M, followed by protein extraction from supernatant (10 min, 13,000r/min centrifuge). Extracted cell lysate was stored in −20° C. Proteins were quantified through Bovine albumin serum (BAS) standard curve with protein assay dye reagent (BIO-RAD). The proteins were separated by SDS-PAGE with 100v in 90 min by mini-protein TGX precast gels (4-15%, 15 wells, 15 μl/well, BIO-RAD), and then transfer to Mini PVDF transfer package through transfer system (Transfer-Turbo, BIO-RAD). After 30 min blocking with 5% skim milk in cold room (4° C.) and washing with TBST, membrane was cut by the size of interested proteins. Primary antibodies were added into the corresponding membrane sections for overnight binding. Then the membranes were washed with TBST, and the secondary antibodies were incubated for 1 h in cold room. The following antibody were used: (Goat pAb to Rb lg, ab205718, abcam; Rb pAb to beta-actin, ab8227, abcam; anti-pklr, HPA006653, SIGMA; Rb pAb to fatty acid synthase, ab99539, abcam). The bindings were imaged by immunostaining and machine (ImageQuant LAS 500). All antibodies were purchased from Abcam online, and βactin was used as global normalized protein. After measurement, the strength of signal for each protein was quantified by ImageJ. The background noise was removed, and all results were normalized by the levels of β-actin.
(§4) To further analyse the effect of these drugs on lipid accumulation via the DNL pathway, steatosis was induced to HepG2 by treating the cells with high glucose medium (DMEM), insulin and T0901317 (Hansmannel et al., 2006). […] Therefore, the effects of these two drugs on the de novo synthesis of lipids were investigated based on the steatosis-induced HepG2 model. […] Taken together, it was shown that BX-912 and JNK-IN-5A effectively alleviate the protein expression of PKLR and FASN as well as TG levels in HepG2 cell lines, and thus, it was decided to perform in vivo evaluations to test the effect of these two drugs.

FASN [2] = test: FASN protein level by western blot in steatosis-induced HepG2, 7-day drug treatment; format: cell-based; details: steatosis-induced HepG2, 7 days of drug treatment, P<0.05, FIG. 2C
Protocol: as §1, §2, §3, §4

PKLR [3] = test: PKLR protein level by western blot in HepG2, 2-day drug treatment; format: cell-based; details: HepG2, two days of treatment, dosages per FIG. 5, P<0.05, FIG. 2A
Protocol: WT HepG2 was included in this study and cultured by Roswell Park Memorial Institute (RPMI, […], Sigma Aldrich) 1640 Medium with 10% fetal bovine serum (FBS) and 1% penicillin-streptomycin (PS). To induce a steatosis model into WT HepG2 cells, high glucose Dulbecco's Modified Eagle Media (DMEM, […]/[…], Sigma-Aldrich) containing 10% FBS and 1% PS was used as medium for one week, together with 10 μg/mL insulin and 10 μM T0901317. All of cells were incubated in the incubator with 5% CO2 and 37° C. (Thermo […]). Fresh medium was provided every two days. As for drug-screening, different numbers of HepG2 cells were seeded for distinct experiments. More in details, 40,000 cells and 500,000 cells were used for 2-day-drug treatment in 96-well-plate and 6-well plate, respectively, while 80,000 cells and 300,000 cells were used for one-week drug treatment in 96-well plate and 6-well plate, respectively. […] Fresh medium was provided every two days. Protein content levels were detected by western blot. After the respective treatment of drugs, the cell pellets were lysed in cell lytic M, followed by protein extraction from supernatant (10 min, 13,000r/min centrifuge). Extracted cell lysate was stored in -20° C. Proteins were quantified through Bovine albumin serum (BAS) standard curve with protein assay dye reagent (BIO-RAD). The proteins were separated by SDS-PAGE with 100v in 90 min by mini-protein TGX precast gels (4-15%, 15 wells, 15 μl/well, BIO-RAD), and then transfer to Mini PVDF transfer package through transfer system (Transfer-Turbo, BIO-RAD). After 30 min blocking with 5% skim milk in cold room (4° C.) and washing with TBST, membrane was cut by the size of interested proteins. Primary antibodies were added into the corresponding membrane sections for overnight binding. Then the membranes were washed with TBST, and the secondary antibodies were incubated for 1 h in cold room. The following antibody were used: (Goat pAb to Rb lg, ab205718, abcam; Rb pAb to beta-actin, ab8227, abcam; […]; Rb pAb to fatty acid synthase, ab99539, abcam). The bindings were imaged by immunostaining and machine (ImageQuant LAS 500). All antibodies were purchased from Abcam online, and βactin was used as global normalized protein. After measurement, the strength of signal for each protein was quantified by ImageJ. The background noise was removed, and all results were normalized by the levels of β-actin. To determine the inhibitory effects of these drugs on the expression level of PKLR, HepG2 was selected as the in vitro model for coherence. […] HepG2 cells were treated with these drugs for two days with different dosages due to their potential cellular toxicities (FIG. 5), and the PKLR protein level was the measured by western blotting. The level of protein expression of PKLR of the drug-treated groups was compared to that of the Ctrl group after normalizing with β-actin.

[4] = system: genes controlling fatty acid biosynthesis and Pcsk9; details: in vitro (Poirier et al., 2014); cited from earlier work
FASN [5] = details: high-glucose-cultured HepG2 cell model (Hosseini et al., 2020); cited from earlier work

| Compound | protein expression level of PKLR (PKLR [1]) | protein expression level of FASN (FASN [2]) | protein expression of PKLR vs Ctrl, normalized with β-actin (PKLR [3]) | expression level of a list of genes controlling fatty acid biosynthesis and Pcsk9 [4] | expression level of Fasn (FASN [5]) |
| --- | --- | --- | --- | --- | --- |
| CC(C)(C)c1nc(-c2cccc(NS(=O)(=O)c3c(F)cccc3F)c2F)c(-c2ccnc(N)n2)s1 [Dabrafenib] | significantly decreased | significantly reduced |  |  |  |
| PF-477736 | significantly decreased | significantly reduced |  |  |  |
| N#CC(c1ccnc(NCCc2cccnc2)n1)c1nc2ccccc2s1 (stereo not drawn) [AS-601245] | significantly decreased |  | significantly down-regulated |  |  |
| CCCS(=O)(=O)Nc1ccc(F)c(C(=O)c2c[nH]c3ncc(Cl)cc23)c1F [PLX-4720] | significantly decreased | significantly reduced | significantly down-regulated |  |  |
| Nc1ncn([C@@H]2O[C@H](CO)[C@@H](O)[C@H]2O)c(=O)n1 [Azacitidine] | significantly decreased | significantly reduced | significantly down-regulated | reduces | decreases |
| O=C(NC(NC(=S)Nc1ccc(F)c([N+](=O)[O-])c1)C(Cl)(Cl)Cl)C(c1ccccc1)c1ccccc1 (stereo not drawn) [CGK-733] |  |  | significantly down-regulated |  |  |
